US20110112184A1, “COMPOUNDS WITH GLYCIDIC STRUCTURE ACTIVE IN THE THERAPY OF SYSTEMIC AND LOCAL INFLAMMATION” (priority 2008, published 2011)

System: HT29 cells
Assay: LPS-induced IL-8 production by HT29 intestinal epithelial cells (ELISA)
Type: cell-based, human
Conditions: compounds 50 mg/L to 5 μg/L for 18 h, then LPS (Salmonella enterica abortus equi) 1 μg/ml 6 h
Description: FIG. 2A. LPS-induced IL-8 production by HT29 cells in the absence or presence of the indicated concentrations of compound (c) 4, 5, 6, 7, 4′, 14.
The effect of the compounds on the release of IL-8 or KC was tested upon stimulation of intestinal epithelial cells (IEC) with LPS from Salmonella enterica abortus equi. The human IEC line HT29 was used for these experiments. Cells were cultured for 18 h in medium alone or in medium additioned with different concentrations of compounds 4, 5, 6, 7, 4′ and 14 (from 50 mg/L to 5 μg/L). Then, cells were stimulated for 6 h with LPS (1 μg/ml). […] Similar experiments were performed on a human pneumocyte type II cell line (A549) using compound 4 and LPS from Pseudomonas aeruginosa.

Compound	production of IL-8 induced by LPS
O=S(=O)(NCC[C@H]1O[C@H](CO)[C@@H](O)[C@H](O)[C@H]1O)c1cccc2ccccc12 [Compound 5]	significantly inhibited
CN(C)c1cccc2c(S(=O)(=O)NCCCC[C@H]3O[C@H](CO)[C@@H](O)[C@H](O)[C@H]3O)cccc12 [Compound 14, 5-(Dimethylamino)-N-[4′-(α-D-glucopyranosyl)butyl]-1-naphthalenesulfonamide]	significantly inhibited
CN(C)c1cccc2c(S(=O)(=O)NCC[C@H]3O[C@H](CO)[C@H](O)[C@H](O)[C@H]3O)cccc12 [4′, 5-(Dimethylamino)-N-[2′-(α-D-galactopyranosyl)ethyl]-1-naphthalenesulfonamide]	significantly inhibited
O=C(NCC[C@H]1O[C@H](CO)[C@@H](O)[C@H](O)[C@H]1O)c1cccc2ccccc12 [Compound 6, N-[2′-(α-D-Glucopyranosyl)ethyl]-1-naphtalenecarboxyamide]	significantly inhibited
CCCCN(CCCC)c1cccc2c(S(=O)(=O)NCC[C@H]3O[C@H](CO)[C@@H](O)[C@H](O)[C@H]3O)cccc12 [Compound 7, 5-(Dibutylamino)-N-[2′-(α-D-glucopyranosyl)ethyl]-1-naphthalenesulfonamide]	significantly inhibited
